In US20240101540A1, “TARGETED PROTEIN DEGRADATION OF PARP14 FOR USE IN THERAPY” (Ribon Therapeutics, Inc., priority 2022, published 2024):
Counter-ions that a name gives are not always drawn.

Molecular target: T1, HiBiT tagged PARP14 (Homo sapiens, UniProt Q460N5)
T1 construct: engineered to contain a HiBiT tag on both alleles of the PARP14 gene; endogenous in cells; host or cells: Jurkat cells stably transfected with LgBiT (Promega), PARP14 locus edited by CRISPR/Cas9
Experiment: HiBiT assay for the degradation of PARP14 (HiBiT tagged PARP14 in LgBiT expressing Jurkat cells, 2 or 24 hours)
Type: cell-based
Conditions: Assay B (Example B): HiBiT tagged PARP14 degradation in LgBiT expressing Jurkat cells, read-out: DC50
Procedure, shortened: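 Luminescence from HiBiT–LgBiT complementation served as proxy for endogenous PARP14 level in edited LgBiT Jurkat cells (5,000/well). After 2 or 24 h compound exposure at 37 °C, signal read with Live Cell Substrate, expressed as % of 0.1% DMSO control, and fitted (4-parameter, free Hill) for DC50.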

T1 sequence (Q460N5 whole entry): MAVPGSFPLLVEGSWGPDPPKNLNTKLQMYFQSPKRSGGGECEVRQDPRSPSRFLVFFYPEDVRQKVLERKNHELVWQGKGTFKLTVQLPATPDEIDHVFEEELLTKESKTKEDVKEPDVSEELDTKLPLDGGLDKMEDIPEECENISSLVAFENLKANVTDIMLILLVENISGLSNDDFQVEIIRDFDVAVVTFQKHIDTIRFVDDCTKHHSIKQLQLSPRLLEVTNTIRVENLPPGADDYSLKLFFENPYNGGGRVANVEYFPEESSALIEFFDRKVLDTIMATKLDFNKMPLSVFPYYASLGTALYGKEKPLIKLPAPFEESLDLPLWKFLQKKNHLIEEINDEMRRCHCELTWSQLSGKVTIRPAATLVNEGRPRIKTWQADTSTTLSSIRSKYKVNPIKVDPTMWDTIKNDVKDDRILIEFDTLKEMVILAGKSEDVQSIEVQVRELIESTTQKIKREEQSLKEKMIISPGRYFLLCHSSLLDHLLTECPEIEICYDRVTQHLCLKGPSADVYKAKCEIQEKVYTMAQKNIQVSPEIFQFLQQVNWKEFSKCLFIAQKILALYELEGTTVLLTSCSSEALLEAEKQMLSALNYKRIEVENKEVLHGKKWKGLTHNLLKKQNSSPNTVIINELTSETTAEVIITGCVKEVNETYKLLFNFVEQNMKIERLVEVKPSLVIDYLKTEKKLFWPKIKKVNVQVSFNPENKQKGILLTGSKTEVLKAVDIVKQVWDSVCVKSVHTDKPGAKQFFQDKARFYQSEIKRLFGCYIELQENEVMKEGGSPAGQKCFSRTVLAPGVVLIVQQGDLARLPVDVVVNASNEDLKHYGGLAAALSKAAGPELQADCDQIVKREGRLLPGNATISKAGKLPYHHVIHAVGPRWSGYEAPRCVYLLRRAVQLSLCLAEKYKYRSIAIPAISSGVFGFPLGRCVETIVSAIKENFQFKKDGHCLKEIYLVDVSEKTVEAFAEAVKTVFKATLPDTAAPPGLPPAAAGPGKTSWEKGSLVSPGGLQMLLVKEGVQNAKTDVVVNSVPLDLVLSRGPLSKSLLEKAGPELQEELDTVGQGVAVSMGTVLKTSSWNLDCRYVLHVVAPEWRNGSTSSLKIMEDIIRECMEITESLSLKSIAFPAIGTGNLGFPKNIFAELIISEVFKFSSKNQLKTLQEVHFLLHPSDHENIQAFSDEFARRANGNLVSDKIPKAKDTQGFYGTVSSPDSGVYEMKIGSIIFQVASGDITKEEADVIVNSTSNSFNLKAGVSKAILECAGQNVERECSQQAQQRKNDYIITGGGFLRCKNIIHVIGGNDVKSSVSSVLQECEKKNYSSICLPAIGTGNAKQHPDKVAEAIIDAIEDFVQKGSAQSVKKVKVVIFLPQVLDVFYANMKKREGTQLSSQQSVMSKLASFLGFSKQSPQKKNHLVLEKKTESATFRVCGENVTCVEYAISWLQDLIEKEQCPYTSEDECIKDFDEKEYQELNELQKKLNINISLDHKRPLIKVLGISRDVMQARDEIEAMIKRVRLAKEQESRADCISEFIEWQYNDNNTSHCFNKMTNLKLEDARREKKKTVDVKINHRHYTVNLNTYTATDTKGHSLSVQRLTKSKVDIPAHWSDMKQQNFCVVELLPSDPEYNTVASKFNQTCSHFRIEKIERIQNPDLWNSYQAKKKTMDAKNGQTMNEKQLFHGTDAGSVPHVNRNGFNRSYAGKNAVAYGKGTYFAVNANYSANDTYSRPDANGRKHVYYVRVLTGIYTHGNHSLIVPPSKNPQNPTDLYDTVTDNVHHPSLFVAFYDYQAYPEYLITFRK

SMILES | DC50
O=C1CCC(Nc2ccc(N3CCC(C(=O)N4CCC(COc5cc(F)c6c(=O)[nH]c(CSC7CCOCC7)nc6c5)CC4)CC3)c(F)c2)C(=O)N1 (stereo not shown) [Example 153, 3-((3-fluoro-4-(4-(4-(((5-fluoro-4-oxo-2-(((tetrahydro-2H-pyran-4-yl)thio)methyl)-3,4-dihydroquinazolin-7-yl)oxy)methyl)piperidine-1-carbonyl)piperidin-1-yl)phenyl)amino)piperidine-2,6-dione] | < 30 nM
O=C1CCC(Nc2ccc(N3CCN(C(=O)N4CCC(COc5cc(F)c6c(=O)[nH]c(CSC7CCOCC7)nc6c5)CC4)CC3)c(F)c2)C(=O)N1 (stereo not shown) [Example 154, 3-((3-fluoro-4-(4-(4-(((5-fluoro-4-oxo-2-(((tetrahydro-2H-pyran-4-yl)thio)methyl)-3,4-dihydroquinazolin-7-yl)oxy)methyl)piperidine-1-carbonyl)piperazin-1-yl)phenyl)amino)piperidine-2,6-dione] | < 30 nM
Cn1nc(N2CCC(=O)NC2=O)c2ccc(N3CCC(N4CCC(COc5cc(F)c6c(=O)[nH]c(CSC7CCOCC7)nc6c5)CC4)CC3)cc21 [Example 155, 1-(6-(4-(((5-fluoro-4-oxo-2-(((tetrahydro-2H-pyran-4-yl)thio)methyl)-3,4-dihydroquinazolin-7-yl)oxy)methyl)-[1,4′-bipiperidin]-1′-yl)-1-methyl-1H-indazol-3-yl)dihydropyrimidine-2,4(1H,3H)-dione] | < 30 nM
Cn1nc(C2CCC(=O)NC2=O)c2ccc(N3CCC(N4CC(N5CCC(COc6cc(F)c7c(=O)[nH]c(CSC8CCOCC8)nc7c6)CC5)C4)CC3)cc21 (stereo not shown) [Example 156, 3-(6-(4-(3-(4-(((5-fluoro-4-oxo-2-(((tetrahydro-2H-pyran-4-yl)thio)methyl)-3,4-dihydroquinazolin-7-yl)oxy)methyl)piperidin-1-yl)azetidin-1-yl)piperidin-1-yl)-1-methyl-1H-indazol-3-yl)piperidine-2,6-dione] | < 30 nM
O=C1CCN(c2ccc(N3CCC(N4CC(N5CCC(COc6cc(F)c7c(=O)[nH]c(CSC8CCOCC8)nc7c6)CC5)C4)CC3)c(F)c2)C(=O)N1 [Example 157, 1-(3-fluoro-4-(4-(3-(4-(((5-fluoro-4-oxo-2-(((tetrahydro-2H-pyran-4-yl)thio)methyl)-3,4-dihydroquinazolin-7-yl)oxy)methyl)piperidin-1-yl)azetidin-1-yl)piperidin-1-yl)phenyl)dihydropyrimidine-2,4(1H,3H)-dione] | < 30 nM
O=C1CCN(c2ccc(N3CCC(N4CCC(COc5cc(F)c6c(=O)[nH]c(CSC7CCOCC7)nc6c5)CC4)CC3)c(F)c2)C(=O)N1 [Example 158, 1-(3-fluoro-4-(4-(((5-fluoro-4-oxo-2-(((tetrahydro-2H-pyran-4-yl)thio)methyl)-3,4-dihydroquinazolin-7-yl)oxy)methyl)-[1,4′-bipiperidin]-1′-yl)phenyl)dihydropyrimidine-2,4(1H,3H)-dione formate] | < 30 nM
Cn1nc(N2CCC(=O)NC2=O)c2ccc(N3CCC(N4CCC(COc5cc(F)c6c(=O)[nH]c(COC7CCOCC7)nc6c5)CC4)CC3)c(F)c21 [Example 159, 1-(7-fluoro-6-(4-(((5-fluoro-4-oxo-2-(((tetrahydro-2H-pyran-4-yl)oxy)methyl)-3,4-dihydroquinazolin-7-yl)oxy)methyl)-[1,4′-bipiperidin]-1′-yl)-1-methyl-1H-indazol-3-yl)dihydropyrimidine-2,4(1H,3H)-dione formate] | < 30 nM
Cn1nc(N2CCC(=O)NC2=O)c2cc(F)c(N3CCC(N4CCC(COc5cc(F)c6c(=O)[nH]c(COC7CCOCC7)nc6c5)CC4)CC3)cc21 [Example 160, 1-(5-fluoro-6-(4-(((5-fluoro-4-oxo-2-(((tetrahydro-2H-pyran-4-yl)oxy)methyl)-3,4-dihydroquinazolin-7-yl)oxy)methyl)-[1,4′-bipiperidin]-1′-yl)-1-methyl-1H-indazol-3-yl)dihydropyrimidine-2,4(1H,3H)-dione] | < 30 nM
Cn1nc(N2CCC(=O)NC2=O)c2ccc(N3CCC(N4CC(N5CCC(COc6cc(F)c7c(=O)[nH]c(CSC8CCOCC8)nc7c6)CC5)C4)CC3)cc21 [Example 161, 1-(6-(4-(3-(4-(((5-fluoro-4-oxo-2-(((tetrahydro-2H-pyran-4-yl)thio)methyl)-3,4-dihydroquinazolin-7-yl)oxy)methyl)piperidin-1-yl)azetidin-1-yl)piperidin-1-yl)-1-methyl-1H-indazol-3-yl)dihydropyrimidine-2,4(1H,3H)-dione] | < 30 nM

The remaining lines, values ahead:

DC50 | SMILES
< 30 nM | O=C1CCN(c2cncc3c(N4CCC(N5CCC(COc6cc(F)c7c(=O)[nH]c(CSC8CCOCC8)nc7c6)CC5)CC4)cccc23)C(=O)N1 [Example 162, 1-(8-(4-(((5-fluoro-4-oxo-2-(((tetrahydro-2H-pyran-4-yl)thio)methyl)-3,4-dihydroquinazolin-7-yl)oxy)methyl)-[1,4′-bipiperidin]-1′-yl)isoquinolin-4-yl)dihydropyrimidine-2,4(1H,3H)-dione]
< 30 nM | Cn1nc(N2CCC(=O)NC2=O)c2cc(F)c(N3CCC(N4CCC(COc5cc(F)c6c(=O)[nH]c(CSC7CCOCC7)nc6c5)CC4)CC3)cc21 [Example 163, 1-(5-fluoro-6-(4-(((5-fluoro-4-oxo-2-(((tetrahydro-2H-pyran-4-yl)thio)methyl)-3,4-dihydroquinazolin-7-yl)oxy)methyl)-[1,4′-bipiperidin]-1′-yl)-1-methyl-1H-indazol-3-yl)dihydropyrimidine-2,4(1H,3H)-dione]
< 30 nM | Cn1nc(N2CCC(=O)NC2=O)c2cc(F)c(N3CCC(N4CC(N5CCC(COc6cc(F)c7c(=O)[nH]c(CSC8CCOCC8)nc7c6)CC5)C4)CC3)cc21 [Example 164, 1-(5-fluoro-6-(4-(3-(4-(((5-fluoro-4-oxo-2-(((tetrahydro-2H-pyran-4-yl)thio)methyl)-3,4-dihydroquinazolin-7-yl)oxy)methyl)piperidin-1-yl)azetidin-1-yl)piperidin-1-yl)-1-methyl-1H-indazol-3-yl)dihydropyrimidine-2,4(1H,3H)-dione]
< 30 nM | O=C1CCN(c2ccc(F)c(N3CCC(N4CC(N5CCC(COc6cc(F)c7c(=O)[nH]c(CSC8CCOCC8)nc7c6)CC5)C4)CC3)c2)C(=O)N1 [Example 165, 1-(4-fluoro-3-(4-(3-(4-(((5-fluoro-4-oxo-2-(((tetrahydro-2H-pyran-4-yl)thio)methyl)-3,4-dihydroquinazolin-7-yl)oxy)methyl)piperidin-1-yl)azetidin-1-yl)piperidin-1-yl)phenyl)dihydropyrimidine-2,4(1H,3H)-dione]
< 30 nM | COc1cc(N2CCC(N3CC(N4CCC(COc5cc(F)c6c(=O)[nH]c(CSC7CCOCC7)nc6c5)CC4)C3)CC2)c(F)cc1N1CCC(=O)NC1=O [Example 166, 1-(5-fluoro-4-(4-(3-(4-(((5-fluoro-4-oxo-2-(((tetrahydro-2H-pyran-4-yl)thio)methyl)-3,4-dihydroquinazolin-7-yl)oxy)methyl)piperidin-1-yl)azetidin-1-yl)piperidin-1-yl)-2-methoxyphenyl)dihydropyrimidine-2,4(1H,3H)-dione]
< 30 nM | O=C1CCN(c2cnc3cc(N4CCC(N5CC(N6CCC(COc7cc(F)c8c(=O)[nH]c(CSC9CCOCC9)nc8c7)CC6)C5)CC4)ccn23)C(=O)N1 [Example 167, 1-(7-(4-(3-(4-(((5-fluoro-4-oxo-2-(((tetrahydro-2H-pyran-4-yl)thio)methyl)-3,4-dihydroquinazolin-7-yl)oxy)methyl)piperidin-1-yl)azetidin-1-yl)piperidin-1-yl)imidazo[1,2-a]pyridin-3-yl)dihydropyrimidine-2,4(1H,3H)-dione]
< 30 nM | O=C1CCN(c2cnc3cc(N4CCC(N5CC(N6CCC(COc7cc(F)c8c(=O)[nH]c(COC9CCOCC9)nc8c7)CC6)C5)CC4)ccn23)C(=O)N1 [Example 168, 1-(7-(4-(3-(4-(((5-fluoro-4-oxo-2-(((tetrahydro-2H-pyran-4-yl)oxy)methyl)-3,4-dihydroquinazolin-7-yl)oxy)methyl)piperidin-1-yl)azetidin-1-yl)piperidin-1-yl)imidazo[1,2-a]pyridin-3-yl)dihydropyrimidine-2,4(1H,3H)-dione]
< 30 nM | O=C1CCC(N2C(=O)c3cccc4c(N5CCC(N6CC(N7CCC(COc8cc(F)c9c(=O)[nH]c(CSC%10CCOCC%10)nc9c8)CC7)C6)CC5)ccc2c34)C(=O)N1 (stereo not shown) [Example 169, 3-(6-(4-(3-(4-(((5-fluoro-4-oxo-2-(((tetrahydro-2H-pyran-4-yl)thio)methyl)-3,4-dihydroquinazolin-7-yl)oxy)methyl)piperidin-1-yl)azetidin-1-yl)piperidin-1-yl)-2-oxobenzo[cd]indol-1(2H)-yl)piperidine-2,6-dione]
< 30 nM | O=C1CCC(Nc2ccc(N3CCC(O)(CC(=O)N4CCC(COc5cc(F)c6c(=O)[nH]c(CSC7CCOCC7)nc6c5)CC4)CC3)cc2F)C(=O)N1 (stereo not shown) [Example 170, 3-((2-fluoro-4-(4-(2-(4-(((5-fluoro-4-oxo-2-(((tetrahydro-2H-pyran-4-yl)thio)methyl)-3,4-dihydroquinazolin-7-yl)oxy)methyl)piperidin-1-yl)-2-oxoethyl)-4-hydroxypiperidin-1-yl)phenyl)amino)piperidine-2,6-dione]
< 30 nM | O=C1CCC(Nc2ccc(N3CCC(N4CC(C(=O)N5CCC(COc6cc(F)c7c(=O)[nH]c(CSC8CCOCC8)nc7c6)CC5)C4)CC3)c(F)c2)C(=O)N1 (stereo not shown) [Example 171, 3-((3-fluoro-4-(4-(3-(4-(((5-fluoro-4-oxo-2-(((tetrahydro-2H-pyran-4-yl)thio)methyl)-3,4-dihydroquinazolin-7-yl)oxy)methyl)piperidine-1-carbonyl)azetidin-1-yl)piperidin-1-yl)phenyl)amino)piperidine-2,6-dione]
